Measurements from patent US12540150B1, “Fluorogenic probe using a Mislow-Evans rearrangement for real-time imaging of hydrogen peroxide” (University of Pittsburgh—Of the Commonwealth System of …, priority 2020, dated 2026).
Where “and” joins values, the source holds several entries; their conditions need not be identical. Equal values may be shown once.

Assay: Kinetics of the reaction of 1 with H2O2

Q: With `Oc1ccc2c(c1)Oc1cc(O/C=C/C[Se]c3ccccc3)ccc1[C@@]21OCc2ccccc21` [Compound 1, (S,E)-6′-((3-(Phenylselanyl)prop-1-en-1-yl)oxy)-3H-spiro[isobenzofuran-1,9′-xanthen]-3′-ol] as the molecule, how does the “rate of reaction with H2O2 relative to boronate-based probes” value read?
A: seven times faster

Q: And the “second order rate constant k” value (5% MeCN in pH 7.5 HEPES buffer 50 mM, [1]=1.7 μM)?
A: 9.82 ± 1.11 M⁻¹ s⁻¹

Q: What about the “Slope k′” value ([H2O2] 0.625 mM) of the same molecule?
A: 0.00251 s⁻¹

Q: And the “Slope k′” value ([H2O2] 1.25 mM)?
A: 0.01359 s⁻¹

Q: And the “Slope k′” value ([H2O2] 2.5 mM)?
A: 0.02432 s⁻¹

Q: And the “F-F0 (515 nm)” value ([H2O2] = 0.625 mM, 30 s)?
A: 145,691 and 101,161 and 83,026

Q: And the “[1]” value ([H2O2] = 0.625 mM, 30 s)?
A: 1.3453 µM and 1.4596 µM and 1.5061 µM

Q: What about the “F-F0 (515 nm)” value ([H2O2] = 0.625 mM, 90 s) of the same molecule?
A: 220,196 and 277,036 and 236,883

Q: And the “[1]” value ([H2O2] = 0.625 mM, 90 s)?
A: 1.1541 µM and 1.0082 µM and 1.1113 µM

Q: What about the “F-F0 (515 nm)” value ([H2O2] = 0.625 mM, 150 s) of the same molecule?
A: 301,900 and 391,059 and 348,470

Q: What about the “[1]” value ([H2O2] = 0.625 mM, 150 s) of the same molecule?
A: 0.9444 µM and 0.7157 µM and 0.8249 µM

Q: What about the “F-F0 (515 nm)” value ([H2O2] = 0.625 mM, 210 s) of the same molecule?
A: 355,049 and 458,596 and 422,910

Q: And the “[1]” value ([H2O2] = 0.625 mM, 210 s)?
A: 0.8081 µM and 0.5424 µM and 0.6339 µM

Q: And the “F-F0 (515 nm)” value ([H2O2] = 0.625 mM, 270 s)?
A: 390,358 and 499,861 and 473,964

Q: What about the “[1]” value ([H2O2] = 0.625 mM, 270 s) of the same molecule?
A: 0.7175 µM and 0.4365 µM and 0.5029 µM

Q: And the “F-F0 (515 nm)” value ([H2O2] = 0.625 mM, 330 s)?
A: 421,561 and 522,358 and 509,584

Q: What about the “[1]” value ([H2O2] = 0.625 mM, 330 s) of the same molecule?
A: 0.6374 µM and 0.3787 µM and 0.4115 µM

Q: What about the “F-F0 (515 nm)” value ([H2O2] = 0.625 mM, 390 s) of the same molecule?
A: 450,025 and 534,705 and 536,252

Q: And the “[1]” value ([H2O2] = 0.625 mM, 390 s)?
A: 0.5643 µM and 0.3470 µM and 0.3431 µM

Q: And the “F-F0 (515 nm)” value ([H2O2] = 0.625 mM, 450 s)?
A: 477,638 and 541,922 and 555,207

Q: And the “[1]” value ([H2O2] = 0.625 mM, 450 s)?
A: 0.4935 µM and 0.3285 µM and 0.2944 µM

Q: And the “F-F0 (515 nm)” value ([H2O2] = 0.625 mM, 510 s)?
A: 501,767 and 546,290 and 569,868

Q: What about the “[1]” value ([H2O2] = 0.625 mM, 510 s) of the same molecule?
A: 0.4316 µM and 0.3173 µM and 0.2568 µM

Q: And the “F-F0 (515 nm)” value ([H2O2] = 0.625 mM, 570 s)?
A: 524,121 and 550,122 and 581,518

Q: And the “[1]” value ([H2O2] = 0.625 mM, 570 s)?
A: 0.3742 µM and 0.3075 µM and 0.2269 µM

Q: What about the “F-F0 (515 nm)” value ([H2O2] = 0.625 mM, 630 s) of the same molecule?
A: 543,908 and 551,490 and 591,076

Q: What about the “[1]” value ([H2O2] = 0.625 mM, 630 s) of the same molecule?
A: 0.3234 µM and 0.3040 µM and 0.2024 µM

Q: And the “F-F0 (515 nm)” value ([H2O2] = 0.625 mM, 690 s)?
A: 559,985 and 551,741 and 599,176

Q: And the “[1]” value ([H2O2] = 0.625 mM, 690 s)?
A: 0.2822 µM and 0.3033 µM and 0.1816 µM

Q: And the “F-F0 (515 nm)” value ([H2O2] = 0.625 mM, 750 s)?
A: 570,897 and 553,475 and 603,780

Q: What about the “[1]” value ([H2O2] = 0.625 mM, 750 s) of the same molecule?
A: 0.2542 µM and 0.2989 µM and 0.1698 µM

Q: What about the “F-F0 (515 nm)” value ([H2O2] = 0.625 mM, 810 s) of the same molecule?
A: 580,693 and 553,568 and 609,902

Q: What about the “[1]” value ([H2O2] = 0.625 mM, 810 s) of the same molecule?
A: 0.2290 µM and 0.2986 µM and 0.1541 µM

Q: What about the “F-F0 (515 nm)” value ([H2O2] = 0.625 mM, 870 s) of the same molecule?
A: 587,536 and 552,326 and 614,108

Q: What about the “F-F0 (515 nm)” value ([H2O2] = 1.25 mM, 30 s) of the same molecule?
A: 255,659 and 258,915 and 225,047

Q: What about the “[1]” value ([H2O2] = 1.25 mM, 30 s) of the same molecule?
A: 1.0631 µM and 1.0547 µM and 1.1417 µM

Q: And the “F-F0 (515 nm)” value ([H2O2] = 1.25 mM, 90 s)?
A: 364,712 and 517,271 and 484,926

Q: What about the “[1]” value ([H2O2] = 1.25 mM, 90 s) of the same molecule?
A: 0.7833 µM and 0.3918 µM and 0.4748 µM

Q: And the “F-F0 (515 nm)” value ([H2O2] = 1.25 mM, 150 s)?
A: 463,364 and 607,290 and 590,662

Q: And the “F-F0 (515 nm)” value ([H2O2] = 1.25 mM, 210 s)?
A: 514,663 and 641,798 and 639,332

Q: What about the “F-F0 (515 nm)” value ([H2O2] = 1.25 mM, 270 s) of the same molecule?
A: 549,297 and 656,229 and 660,178

Q: And the “F-F0 (515 nm)” value ([H2O2] = 1.25 mM, 330 s)?
A: 572,635 and 661,539 and 664,254

Q: What about the “F-F0 (515 nm)” value ([H2O2] = 1.25 mM, 390 s) of the same molecule?
A: 589,797 and 665,178 and 666,753

Q: What about the “F-F0 (515 nm)” value ([H2O2] = 1.25 mM, 450 s) of the same molecule?
A: 601,493 and 663,842 and 669,367

Q: What about the “F-F0 (515 nm)” value ([H2O2] = 1.25 mM, 510 s) of the same molecule?
A: 606,377 and 663,608 and 673,539

Q: And the “F-F0 (515 nm)” value ([H2O2] = 1.25 mM, 570 s)?
A: 612,207 and 662,594 and 675,671

Q: And the “F-F0 (515 nm)” value ([H2O2] = 1.25 mM, 630 s)?
A: 614,405 and 663,947 and 677,477
